Columns and labels:
Pimephales promelas = conditions: chronic/long-term; duration: 264 days; other
Colinus virginianus = conditions: acute, oral, mortality
Anas platyrhynchos = conditions: reproductive; duration: 20 weeks
Canidae = conditions: oral, Dog Other, hematological
Hypoaspis aculeifer = conditions: chronic/long-term; duration: 21 days; mortality
Bibionidae = conditions: chronic/long-term; duration: 28 days
Apis mellifera = conditions: acute, mortality
Tagia sp. = conditions: chronic/long-term; duration: 56 days; mortality
Poecilus cupreus = test: LR50; higher = less toxic; conditions: not reported; duration: 19 days; mortality
Typhlodromus pyri = test: LR50; higher = less toxic; conditions: not reported; duration: 7 days; mortality

Work on CON(C)C(=O)Nc1ccc(Cl)c(Cl)c1 [Linuron] yielded an LD50 (Rattus norvegicus; acute, oral, mortality) of 1000 mg/kg, an LOAEL (Rattus norvegicus; chronic, duration: 2 years, other) of 1.3 mg/kg-day and an NOAEL (Rattus norvegicus; reproduction developmental, body weight) of 0.8 mg/kg-day. The NOEC (Pimephales promelas) was 97 µg/L, the LD50 (Colinus virginianus; diet) was 121 mg/kg-day and the LD50 (Colinus virginianus) was 314 mg/kg-day. The NOAEL (Anas platyrhynchos) was 13.9 mg/kg-day, the NOAEL (Canidae; chronic, duration: 1 years) was 0.9 mg/kg-day and the NOAEL (Canidae; subchronic, duration: 90 days) was 0.9 mg/kg-day. It also gave an NOEC (Hypoaspis aculeifer) of 3.39 mg/kg, an NOEC (Bibionidae) of 9.5 mg/kg and an LD50 (Apis mellifera; dermal) greater than 97.8 µg/piece. For the same molecule, the LD50 (Apis mellifera; oral, unspecified) was greater than 112 µg/piece, the NOEC (Tagia sp.) was 6.78 mg/kg and the LR50 (Poecilus cupreus) was greater than 927 g/ha. It also gave an LR50 (Typhlodromus pyri) of 42.7 g/ha.

Source: EPA's ToxValDB 9.5 (doi:10.2903/j.efsa.2016.4518)
